Here are results for two compounds from patent publication US4701325A, “Injectable aqueous solution containing hydrogensulfite and/or sulfite and anticancerous benzodiazepine compound” (priority 1983, dated 1987).

Counter-ions that a name gives are not always drawn.

Data set [1] relates to ear vein of white rabbits. Kind of data set: Tissue injury (edema ratio) after intravenous administration into the ear vein of rabbits for 5 days. The class given is in vivo. The following applies: ear vein once a day for 5 days; measured 4 days after final administration; compound B 0.16 mg/Kg/day, NaHSO3 1.6 mg/Kg/day. On the procedure: The same materials as those in Example 1 were used to determine the effect thereof administered to white rabbits (male, 2.0-2.3 kg) in groups of four in the ear vein once a day for consective 5 days. The material adminitered to the respective groups was (1) physiological saline, or (2) 0.16 mg of the compound B/Kg/day, (3) 0.16 mg of the compound B+1.6 mg of NaHSO3 /Kg/day or (4) 1.6 mg of NaHSO3 /Kg/day. The solution volumes to be administered were all fixed at 0.5 ml/Kg/day which contains respective material or materials in the above dosage.
For confirmation of the effect, the appearance was observed and the thickness at the administration site was measured 4 days after the final administration to serve as the index of tissue injury.
The edema ratio was determined according to the following equation. [formula]

Data set [2] can be described thus: Stability of compound B in aqueous solution of NaHSO3 or Na2SO3 by HPLC. Type of data set: physicochemical. As to conditions: 3 hours at room temperature, 0.2 mg/ml compound B, Sample: with 2.0 mg/ml NaHSO3 or Na2SO3, read-out: Ratio of remaining compound B. On the procedure:
It was confirmed that the stability of the compound B was not affected when an aqueous solution of NaHSO3 or Na2 SO3 was used as the dissolving medium of the compound B. In a sample of 10 ml of an aqueous solution containing 0.2 mg of the compound B and 2.0 mg of NaHSO3 or Na2 SO3 in 1 ml thereof, analysis was made on high-performance liquid chromatography just after dissolving the compound B and after standing the solution for 3 hours at room temperature, to examine the stability of the compound B. The results are as shown in Table 3.

The test system of another data set is p 388 leukemia. Kind of data set: Antitumor activity in p 388 leukemia cancer-bearing BDF1 mice. Type of data set: in vivo. As to conditions: i.v. once a day for 4 days, compound B 2 mg/Kg/day, NaHSO3 or Na2SO3 20 mg/kg/day. On the procedure:
By the comparative examintion of mean survival days of the mice, index of life saving was calculated by the equation below: [formula]

The nature of data set [3]: Acute toxicity (LD50) in ddY strain mice. Type of data set: in vivo. As to conditions: mouse, in vivo, iv, male ddY mice 18-20 g; combination with 10 times amount of NaHSO3. The protocol: (§1) The materials were administered to ddY strain mice (male, 18-20 g) intravenously to determine the LD50 (mg/Kg). […] Incidentally, NaHSO3 or Na2 SO 3 itself is a substance prescribed in Japanese Parmacopoeia and its safety has been established already.

Another data set has as its system ddY strain mice. Description: Acute toxicity (LD50) in ddY strain mice. Type of data set: in vivo. The following applies: i.v., mice; 10 times amount of NaHSO3. The protocol:
as §1

The LD50 is the dose expected to kill half of the subjects tested. `Cc1ccc2c(c1O)NC(S(=O)O)C1CC(/C=C/C(N)=O)=CN1C2=O` (stereo not shown) [Compound B, sodium salt of 5,10,11,11a-terahydro-9-hydroxy-8-methyl-5-oxo-11-sulfino-1H-pyrrolo[2,1-c][1,4]benzodiazepin-2-acrylamide]: in data set [1], the “Edema ratio (%)” value was found to be 169.4%. In data set [2], the remaining at 3 h stood at 100%. In the data set on p 388 leukemia (control 10 days), this compound showed a Mean survival day of 18.0 days. The “Index of life saving (%)” value in the data set with p 388 leukemia (relative to physiological saline) is on record as 80%. In data set [3], the LD50 came out at 6.23 mg/kg.
With `O=S([O-])O.[Na+]` [NaHSO3, sodium hydrogensulfite, reference compound], in data set [1], the “Edema ratio (%)” value was found to be 0.0%. The “Effect on acute toxicity of the compound B (in words)” value in the data set on ddY strain mice is “did not affect the acute toxicity of the compound B at all”.
